Tests used:
[1] = tested on: C57BL/6 mice with cisplatin-induced cachexia; test: Body weight and muscle mass in cisplatin-treated C57BL/6 mice; type: in vivo
Description: (§1) The animal experiments were performed in accordance with internationally accepted principles for laboratory animal use and care, and the corresponding study protocol was reviewed and approved by the Institutional Animal Care and Use Committee (IACUC) at Chung-Ang University (approval #2021-00022). Four-week-old female C57BL/6 mice and Balb/c mice were purchased from Raonbio Inc. (Yongin, Korea) and were provided with standard laboratory diet and water ad libitum in the animal facility of Chung-Ang University. After a week of acclimation, the mice were intraperitoneally injected three times with 3 mg/kg/day cisplatin, suspended in 200 μL saline, every other day. Control group mice (sham-treated mice) were injected with the same volume of saline under the same regimen. The cisplatin-treated groups were orally administered paeoniflroin (Pae) or megestrol acetate (MA), suspended in 200 μL distilled water, every day until euthanasia.
Specifically, the cisplatin-treated groups were orally administered paeoniflorin (prepared in Example 1) at a dose of 5 (Pae 5 group), 10 (Pae 10 group), or 20 (Pae 20 group) mg/kg once daily for 9 days. The comparative drug-treated group was orally administered megestrol acetate (MA), which is currently most commonly prescribed for cancer cachexia patients in clinical practice, at a dose of 160 mg/kg (=800 mg [daily human dose]/60 kg [average human body weight]×12 [dose equivalent factor based on human:mouse body surface area ratio], once daily for 9 days.
(§2) In addition, cisplatin-treated mice orally administered the same volume of distilled water were designated as the vehicle group. After completion of drug treatment, the mice of each group were euthanized with 10 mg/kg alfaxalone (Jurox, Rutherford, Australia). Blood was collected in test tubes containing EDTA, and centrifuged, and plasma was separated therefrom. Gastrocnemius and quadriceps skeletal muscles were dissected and weighed. The skeletal muscles were rapidly frozen in liquid nitrogen to be used for RT-qPCR, Western blotting, and ELISA.

[2] = tested on: C57BL/6 mice with cisplatin-induced cachexia; test: Skeletal muscle function test in cisplatin-treated C57BL/6 mice; type: in vivo; details: oral paeoniflorin 10 or 20 mg/kg
Description: as §1
Specifically, the cisplatin-treated groups were orally administered paeoniflorin (prepared in Example 1) at a dose of 5 (Pae 5 group), 10 (Pae 10 group), or 20 (Pae 20 group) mg/kg once daily for 9 days. […]
(§3) A skeletal muscle function test was conducted one day before euthanasia. Muscle strength of each mouse was measured by the grip strength of front paws, and endurance of each mouse was measured by treadmill running time until exhaustion. Motor coordination was measured by retention time on a rotating cylinder with a diameter of 3 cm (Castro and Kuang, 2017). The grip strength of each mouse was measured using a grip strength meter (Bio-GS3, Bioseb, Vitrolles, France). The treadmill running time of each mouse was measured on a treadmill (Exer-3/6, Columbus Instruments, […], USA). The ability of each mouse to stay on a rotating cylinder was measured using a rotarod apparatus (Panlab, Barcelona, Spain).

[3] = tested on: Balb/c mice with cisplatin-induced cachexia; test: Skeletal muscle function test in cisplatin-treated Balb/c mice; type: in vivo; details: oral paeoniflorin
Description: as §1, with “Control group mice (sham-treated mice) were injected with the same volume of saline under the same regimen. The cisplatin-treated groups were orally administered paeoniflroin (Pae) or megestrol acetate (MA), suspended in 200 μL distilled water, every day until euthanasia.” left out
as §3

[4] = tested on: TNF-α, IL-6, IL-1β, IL-1α, CCL2 and CCL5; test: mRNA levels of pro-inflammatory cytokines and chemokines in skeletal muscle by real-time PCR, C57BL/6 mice; type: in vivo; details: cisplatin-treated, Pae 10 and Pae 20 vs vehicle
Description: as §2
Total RNA was isolated from skeletal muscle using Qiazol (Qiagen, Germany), and then the mRNA levels of pro-inflammatory cytokines and muscle-specific ubiquitin E3 ligases (MuRF1 and MAFbx) were measured by real-time PCR.
The mRNA levels of pro-inflammatory cytokines such as TNF-α, IL-6, IL-1β, and IL-1α, as well as chemokines such as CCL2 and CCL5, in the skeletal muscle, were measured by real-time PCR.

[5] = tested on: NF-κB signaling (p-IKK, p-IκB, IκB, NF-κB p65); test: NF-κB signaling in skeletal muscle by Western blotting; type: in vivo; details: gastrocnemius muscle, C57BL/6 mice, cisplatin-treated, Pae 10 and Pae 20
Description: Proteins were extracted from skeletal muscle using NucleoSpin kits (Macherey-Nagel, Duren, Germany) and quantified using the BCA Protein Assay Kit (Pierce, Rockford, IL, USA). Anti-β-actin antibody was used to quantify protein loading. For myosin protein (MyHC, myosin heavy chain), myogenic factor (MyoD), and NF-κB signaling system (p-IKK, IKK, p-IκB, and IκB), protein levels in the gastrocnemius muscle were measured by Western blotting. Band intensities were quantified using ImageJ software (NIH, Bethesda, MD, USA). Nuclear and cytoplasmic lysates were prepared from the skeletal muscle using a nuclear extraction kit (Active Motif, Carlsbad, CA, USA). The protein concentration of both lysates was measured using the BCA Protein Assay Kit (Pierce). Anti-NF-κB p65 was used as the primary antibody, and 10 μg of protein per lysate was analyzed by Western blotting. TBP (TATA box-binding protein) and β-actin were as controls for the nuclear and cytosolic lysates, respectively. The target DNA binding activity of NF-κB was measured using the TransAM NF-κB ELISA kit (Active Motif, USA). NF-κB signaling was analyzed by Western blotting of the total extract and the cytosolic and nuclear fraction from the skeletal muscle of C57BL/6 mice.

GDF-15 = test: Plasma GDF-15 by ELISA in mice with cisplatin-induced cachexia; type: in vivo; details: C57B/6 mice; cisplatin plus paeoniflorin-treated group vs cisplatin-treated group; FIG. 13B
Description: as §2
The levels of TNF-α and interleukin (IL)-6 were measured using respective mouse ELISA kits (Invitrogen, Waltham, MA, USA). IL-1β and GDF-15 levels were measured using respective Quantikine ELISA kits (R&D Systems, Minneapolis, MN, USA).
The protein concentration of GDF-15 in the plasma was analyzed by ELISA.

C2C12 myoblasts = test: Myotube differentiation of C2C12 myoblasts; type: cell-based
Description: C2C12 myoblasts were purchased from ATCC (Manassas, Virginia, USA) and cultured using DMEM containing 10% fetal bovine serum. After the cells reached 70% confluence, myotube differentiation was induced while the medium was replaced with DMEM containing 2% horse serum every two days. A negative control group was treated with […] of TNF-α, which inhibits myotube differentiation. While the myoblasts were treated with paeoniflorin at a concentration of 50 to 200 μM along with TNF-α, the degree of myotube differentiation was observed and the length of differentiated myotubes was measured using the Image J program.

C[C@@]12C[C@@]3(O)O[C@@H](O1)[C@]1(COC(=O)c4ccccc4)[C@H]3C[C@@]12O[C@@H]1O[C@H](CO)[C@@H](O)[C@H](O)[C@H]1O [paeoniflorin]
cisplatin-induced weight loss (body weight) ([1]; cisplatin 3 mg/kg/day i.p. three times, paeoniflorin 10 or 20 mg/kg orally daily for 9 days, vs vehicle, FIG. 1A): attenuated
weight of gastrocnemius muscle (skeletal muscle mass) ([1]; cisplatin-treated, paeoniflorin 10 or 20 mg/kg orally daily, FIG. 1B): restored
weight of quadriceps muscle (skeletal muscle mass) ([1]; cisplatin-treated, paeoniflorin 10 or 20 mg/kg orally daily, FIG. 1C): restored
grip strength (muscle strength) ([2]; FIG. 3A): significantly restored
treadmill running time (endurance) ([2]; FIG. 3B): significantly restored
rotarod retention time (motor coordination) ([2]; FIG. 3C): significantly restored
muscle strength ([3]; FIG. 4A): similarly restored
endurance ([3]; FIG. 4B): similarly restored
TNF-α mRNA expression level in the muscle ([4]; FIG. 8A): decreased
IL-6 mRNA expression level in the muscle ([4]; FIG. 8B): decreased
IL-1β mRNA expression level in the muscle ([4]; FIG. 8C): decreased
IL-1α mRNA expression level in the muscle ([4]; FIG. 8D): decreased
CCL2 mRNA expression level in the muscle ([4]; FIG. 8E): decreased
CCL5 mRNA expression level in the muscle ([4]; FIG. 8F): decreased
level of p-IKK (phospho-IKK) ([5]; FIG. 10A): reduced again
level of p-IκB (phospho-IκB) ([5]; FIG. 10B): reduced again
level of IκB ([5]; FIG. 11): increased
cytosolic level of NF-κB ([5]; FIG. 12A): increased
nuclear level of NF-κB ([5]; FIG. 12B): decreased
plasma concentration of GDF-15 (GDF-15): significantly decreased
myotube differentiation (C2C12 myoblasts; paeoniflorin 50 to 200 μM along with TNF-α, FIG. 19): promoted
myotube length (C2C12 myoblasts; paeoniflorin-treated groups vs negative control group (TNF-α+Pae 0 μM), FIG. 20): significantly increased

Source: US20240325420A1, “COMPOSITION INCLUDING PAEONIFLORIN FOR PREVENTION OR TREATMENT OF CACHEXIA AND MUSCLE LOSS” (CHUNG ANG UNIVERSITY INDUSTRY ACADEMIC COOPERATION …, priority 2021, published 2024)
